Target: human plasma kallikrein (Homo sapiens, UniProt P03952)
Experiment: Kallikrein inhibition FLINT assay with quenched AMC peptide substrate Z-Gly-Pro-Arg-AMC (end point EP or kinetic KIN reads)
Type: biochemical
Conditions: kinetic reads at 5 min intervals over 30 min; read-out: Kallikrein (KIN) IC50
In short: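 Enzyme and compound were preincubated 30 min before adding 50 μM AMC substrate in pH 7.5 Tris/NaCl/CaCl2/BSA/CHAPS buffer. AMC release was read at 30 min endpoint or every 5 min.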

Chain of human plasma kallikrein (P03952 391-638 limits assumed): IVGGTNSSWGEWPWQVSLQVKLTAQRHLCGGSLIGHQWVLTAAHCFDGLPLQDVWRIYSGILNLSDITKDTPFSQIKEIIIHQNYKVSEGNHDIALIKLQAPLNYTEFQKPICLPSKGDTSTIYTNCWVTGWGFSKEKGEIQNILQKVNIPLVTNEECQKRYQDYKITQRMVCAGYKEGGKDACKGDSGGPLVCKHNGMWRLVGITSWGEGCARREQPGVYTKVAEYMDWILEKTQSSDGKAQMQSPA
Chain of human plasma kallikrein (P03952 20-390 partner limits assumed): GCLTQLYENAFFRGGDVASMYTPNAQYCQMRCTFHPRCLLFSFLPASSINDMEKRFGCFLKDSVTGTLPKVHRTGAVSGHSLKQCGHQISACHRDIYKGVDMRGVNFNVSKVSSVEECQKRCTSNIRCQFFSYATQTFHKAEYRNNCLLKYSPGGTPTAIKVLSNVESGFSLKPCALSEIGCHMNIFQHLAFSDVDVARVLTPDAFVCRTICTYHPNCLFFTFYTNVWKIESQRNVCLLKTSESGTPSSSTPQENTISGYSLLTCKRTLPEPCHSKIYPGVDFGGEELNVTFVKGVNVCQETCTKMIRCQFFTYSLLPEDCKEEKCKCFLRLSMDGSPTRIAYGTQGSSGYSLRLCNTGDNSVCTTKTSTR

Row | Structure (SMILES) | IC50
1 | O=C(O)c1ccc(-c2cnn(C(CC3CC3)c3ccc(-c4c(C(F)F)ccc(Cl)c4F)c[n+]3[O-])c2)cc1 (stereo not drawn) [Example Q16] | 305 nM
2 | [O-][n+]1cc(-c2c(C(F)F)ccc(Cl)c2F)ccc1C(Cn1cc(F)cn1)n1cc(-c2ccnc(C(F)(F)F)c2)cn1 (single isomer, unassigned) [Example Q23] | 80.4 nM
3 | [O-][n+]1ccc(-c2cnn(C(CC3CC3)c3ccc(-c4c(-n5cnnn5)ccc(Cl)c4F)c[n+]3[O-])c2)cc1 (single isomer, unassigned) [Example P280] | 84 nM
4 | N#Cc1cc(-c2cnn(C(CN3CCCC3=O)c3ccc(-c4c(-n5cnnn5)ccc(Cl)c4F)c[n+]3[O-])c2)cc[n+]1[O-] (stereo not drawn) [Example P466] | 231 nM
5 | O=C(C1CC1CC(c1ccc(-c2c(-n3cnnn3)ccc(Cl)c2F)c[n+]1[O-])n1cc(-c2ccccc2)cn1)N1CCC(c2ccccc2)C1 (stereo not drawn) [Example P196] | 995 nM
6 | NC(=O)c1ccc(-c2cnn(C(CCOC(F)F)c3ccc(-c4c(-n5cc(Cl)nn5)ccc(Cl)c4F)c[n+]3[O-])c2)cc1 (single isomer, unassigned) [Example P895] | 702 nM
7 | COC(=O)Nc1ccc(-c2cnn(C(CC3CC(C)(C)C3)c3ccc(-c4c(-n5cnnn5)ccc(Cl)c4F)c[n+]3[O-])c2)cc1 (stereo not drawn) [Example P126] | 248 nM
8 | [O-][n+]1cc(-c2c(-n3cnnn3)ccc(Cl)c2F)ccc1[C@H](Cn1ccc(OC(F)F)n1)n1cc(-c2ccnc(C(F)(F)F)c2)cn1 [Example P534] | 93.1 nM
9 | COc1cc(C(CC2CC2)n2cc(-c3cnn(C)c(=O)c3)cn2)[n+]([O-])cc1-c1c(C#N)ccc(Cl)c1F (single isomer, unassigned) [Example Q10] | 375 nM
10 | CCCC(c1ccc(-c2c(-n3cnnn3)ccc(Cl)c2F)c[n+]1[O-])n1cc(-c2ccc(NC(=O)OC)cc2)cn1 (stereo not drawn) [Example P156] | 86.7 nM
11 | [O-][n+]1cc(-c2c(-n3cnnn3)ccc(Cl)c2F)ccc1C(Cn1ccc(-c2ccccc2)n1)n1cc(-c2ccncc2)cn1 (stereo not drawn) [Example P270] | 268 nM
12 | NC(=O)c1ccc(-c2cnn(C(Cc3ccn(C(F)F)n3)c3ccc(-c4c(-n5cc(C(F)(F)F)nn5)ccc(Cl)c4F)c[n+]3[O-])c2)cc1F (single isomer, unassigned) [Example P891] | 536 nM
13 | [O-][n+]1cc(-c2cc(Cl)ccc2-n2cnnn2)ccc1C(Cc1ccc(Cl)cc1)n1cc(-c2ccc(F)nc2)cn1 (stereo not drawn) [Example P173] | 78.4 nM
14 | COC(=O)N(C)CC(c1ccc(-c2c(-n3cnnn3)ccc(Cl)c2F)c[n+]1[O-])n1cc(-c2ccnc(F)c2)cn1 (single isomer, unassigned) [Example P355] | 933 nM
15 | Cn1nnc(F)c1-c1cnn(C(CCOC(F)F)c2ccc(-c3c(-c4cnco4)ccc(Cl)c3F)c[n+]2[O-])c1 (stereo not drawn) [Example P846] | 238 nM
16 | Cn1ncc(C[C@@H](c2ccc(-c3c(-n4cc(Cl)nn4)ccc(Cl)c3F)c[n+]2[O-])n2cc(-c3ccnc(C(F)(F)F)c3)cn2)n1 [Example P715] | 830 nM
17 | [O-][n+]1cc(-c2c(-n3cc(Cl)nn3)ccc(Cl)c2F)ccc1[C@@H](Cn1cc(F)cn1)n1cc(-c2c(F)cnn2C(F)F)cn1 [Example P631] | 66.2 nM
18 | NC(=O)C1CC1CC(c1ccc(-c2cc(Cl)ccc2-n2cnnn2)c[n+]1[O-])n1cc(-c2ccc(C(=O)O)cc2)cn1 (stereo not drawn) [Example P114] | 184 nM
19 | [O-][n+]1cc(-c2c(C(F)F)ccc(Cl)c2F)ccc1C(Cn1cc(F)cn1)n1cc(-c2ccnc(C(F)(F)F)c2)cn1 (single isomer, unassigned) [Example Q22] | 806 nM
20 | COC(=O)N1CCC(c2cnn(C(CC3CC3)c3ccc(-c4c(-n5cnnn5)ccc(Cl)c4F)c[n+]3[O-])c2)CC1 (stereo not drawn) [Example P167] | 826 nM
21 | [O-][n+]1cc(-c2cc(Cl)ccc2-n2cnnn2)ccc1C(Cn1cc2c(n1)COCC2)n1cc(-c2ccnc(C(F)(F)F)c2)cn1 (stereo not drawn) [Example P388] | 126 nM
22 | NC(=O)c1ccc(-c2cnn(C(CC3CC3)c3ccc(-c4c(-n5cc(C(F)(F)F)nn5)ccc(Cl)c4F)c[n+]3[O-])c2)cc1F (single isomer, unassigned) [Example P889] | 77.8 nM

Now those with a lower IC50, led by results:

Row | IC50 | Structure (SMILES)
23 | 54.9 nM | CCC(c1cc(OC)c(-c2cc(Cl)ccc2-n2cc(C(F)(F)F)nn2)c[n+]1[O-])n1cc(-c2ncnn2C)cn1 (single isomer, unassigned) [Example P922]
24 | 54.3 nM | [O-][n+]1cc(-c2c(-n3cnnn3)ccc(Cl)c2F)ccc1C(Cc1ccc(C(F)(F)F)nc1)n1cc(-c2ccnn2C(F)F)cn1 (stereo not drawn) [Example P753]
25 | 45.1 nM | CCCC(c1ccc(-c2c(-n3cnnn3)ccc(Cl)c2F)c[n+]1[O-])n1cc(-c2ccc(NC(=O)OC)cc2)cn1 (single isomer, unassigned) [Example P158]
26 | 39.3 nM | NC(=O)C1CC1CC(c1ccc(-c2c(-n3cnnn3)ccc(Cl)c2F)c[n+]1[O-])n1cc(-c2ccc(N)nc2F)cn1 (single isomer, unassigned) [Example P340]
27 | 38 nM | O=C1OCCN1CC(c1ccc(-c2c(-n3cnnn3)ccc(Cl)c2F)c[n+]1[O-])n1cc(-c2ccnc(C(F)(F)F)c2)cn1 (single isomer, unassigned) [Example P430]
28 | 30.7 nM | NC(=O)c1ccc(-c2cnn(C(Cc3ccn(C(F)F)n3)c3ccc(-c4c(-n5cc(Cl)nn5)ccc(Cl)c4F)c[n+]3[O-])c2)cc1 (single isomer, unassigned) [Example P910]
29 | 29 nM | Cn1ncc(F)c1-c1cnn([C@H](CCOC(F)F)c2ccc(-c3c(-n4cc(Cl)nn4)ccc(Cl)c3F)c[n+]2[O-])c1 [Example P680]
30 | 28.5 nM | COC(=O)NC(C)c1ccc(-c2cnn(C(Cc3ccccc3)c3ccc(-c4cc(Cl)ccc4-n4cnnn4)c[n+]3[O-])c2)cc1 (stereo not drawn) [Example P58]
31 | 25 nM | [O-][n+]1cc(-c2c(-n3cnnn3)ccc(Cl)c2F)ccc1[C@@H](CCOC(F)F)n1cc(-c2ccn(C(F)F)n2)cn1 [Example P563]
32 | 22.8 nM | Cn1cc(C[C@H](c2ccc(-c3c(-n4cc(Cl)nn4)ccc(Cl)c3F)c[n+]2[O-])n2cc(-c3ccnc(C(F)(F)F)c3)cn2)nn1 [Example P739]
33 | 7.3 nM | O=C1CCCN1CC(c1ccc(-c2c(-n3cnnn3)ccc(Cl)c2F)c[n+]1[O-])n1cc(-c2ccnc(F)c2)cn1 (single isomer, unassigned) [Example P382]
34 | 4.2 nM | CS(=O)(=O)Nc1ccc(-c2cnn(C(Cc3ccccc3)c3ccc(-c4c(-n5cnnn5)ccc(Cl)c4F)c[n+]3[O-])c2)cc1 (stereo not drawn) [Example P76]
35 | 3.3 nM | COC(=O)Nc1ccc(-c2cnn(C(Cc3ccn(C)n3)c3ccc(-c4c(-n5cnnn5)ccc(Cl)c4F)c[n+]3[O-])c2)cc1 (single isomer, unassigned) [Example P330]
36 | 2.9 nM | COC(=O)Nc1ccc(-c2cnn(C(Cc3cccc(OC)c3)c3ccc(-c4c(-n5cnnn5)ccc(Cl)c4F)c[n+]3[O-])c2)cc1 (single isomer, unassigned) [Example P207]
37 | 2.8 nM | CN1CCN(CC(c2ccc(-c3c(-n4cnnn4)ccc(Cl)c3F)c[n+]2[O-])n2cc(-c3ccnc(C(F)(F)F)c3)cn2)C1=O (stereo not drawn) [Example P432]
38 | 2.3 nM | NC(=O)c1ccc(-c2cnn(C(Cc3ccn(C(F)F)n3)c3ccc(-c4c(-n5cc(C(F)(F)F)nn5)ccc(Cl)c4F)c[n+]3[O-])c2)cc1F (stereo not drawn) [Example P952]
39 | 1.4 nM | [2H]C([2H])(C[C@H](c1ccc(-c2c(-n3cnnn3)ccc(Cl)c2F)c[n+]1[O-])n1cc(-c2cn(C)nc2Cl)cn1)OC(F)F [Example P850]

From US11814364B2, “Pyridine N-oxide derivatives useful as factor XIa inhibitors” (Janssen Pharmaceutica NV, priority 2021, dated 2023)
